{"source": "paper PMC12028158", "about": "“Synthesis and In Vitro Evaluation of the Anticancer Effect of Novel Phosphonium Vindoline Derivatives” (International Journal of Molecular Sciences, 2025)", "format_in_all_cases": "cell-based", "key": {"NCI-H322M": {"system": "NCI-H322M", "assay": "NCI60 one-dose screen", "settings": "Homo sapiens, read-out: Growth percent"}, "IGROV1": {"system": "IGROV1", "assay": "NCI60 one-dose screen", "settings": "Homo sapiens, IGROV-1, read-out: Growth percent"}, "786-0": {"system": "786-0", "assay": "NCI60 one-dose screen", "settings": "Homo sapiens, 786-0, read-out: Growth percent"}, "BT-549": {"system": "BT-549", "assay": "NCI60 one-dose screen", "settings": "Homo sapiens, BT-549, read-out: Growth percent"}, "NCI-H23": {"system": "NCI-H23", "assay": "NCI60 one-dose screen", "settings": "Homo sapiens, NCI-H23, read-out: Growth percent"}, "NCI-H460": {"system": "NCI-H460", "assay": "NCI60 one-dose screen", "settings": "Homo sapiens, NCI-H460, read-out: Growth percent"}, "MDA-MB-231/ATCC": {"system": "MDA-MB-231/ATCC", "assay": "NCI60 one-dose screen", "settings": "Homo sapiens, MDA-MB-231, read-out: Growth percent"}, "OVCAR-8": {"system": "OVCAR-8", "assay": "NCI60 one-dose screen", "settings": "Homo sapiens, OVCAR-8, read-out: Growth percent"}, "UACC-62": {"system": "UACC-62", "assay": "NCI60 one-dose screen", "settings": "Homo sapiens, UACC-62, read-out: Growth percent"}, "[1]": {"system": "60 human tumor cell lines (NCI60)", "assay": "NCI60 one-dose screen, overall mean", "settings": "Homo sapiens, 60 cell, read-out: Mean growth percent"}, "HCT-15": {"system": "HCT-15", "assay": "NCI60 one-dose screen", "settings": "Homo sapiens, HCT-15, read-out: Growth percent"}, "MALME-3M": {"system": "MALME-3M", "assay": "NCI60 one-dose screen", "settings": "Homo sapiens, Malme-3M, read-out: Growth percent"}, "SN12C": {"system": "SN12C", "assay": "NCI60 one-dose screen", "settings": "Homo sapiens, read-out: Growth percent"}, "SK-MEL-5": {"system": "SK-MEL-5", "assay": "NCI60 one-dose screen", "settings": "Homo sapiens, SK-MEL-5, read-out: Growth percent"}, "HOP-92": {"system": "HOP-92", "assay": "NCI60 one-dose screen", "settings": "Homo sapiens, HOP-92, read-out: Growth percent"}, "A498": {"system": "A498", "assay": "NCI60 one-dose screen", "settings": "Homo sapiens, A498, read-out: Growth percent"}, "NCI/ADR-RES": {"system": "NCI/ADR-RES", "assay": "NCI60 one-dose screen", "settings": "Homo sapiens, read-out: Growth percent"}, "MOLT-4": {"system": "MOLT-4", "assay": "NCI60 one-dose screen", "settings": "Homo sapiens, MOLT-4, read-out: Growth percent"}, "KM12": {"system": "KM12", "assay": "NCI60 one-dose screen", "settings": "Homo sapiens, KM12, read-out: Growth percent"}, "SF-539": {"system": "SF-539", "assay": "NCI60 one-dose screen", "settings": "Homo sapiens, SF-539, read-out: Growth percent"}}}
{"smiles": "CCC12C=CCN3CC[C@@]4(c5ccc(OC)cc5N(C)[C@H]4[C@@](O)(C(=O)OC)[C@@H]1OC(C)=O)[C@@H]32", "note": "(some centres unmarked) [compound 2, vindoline]", "values": [{"measurement": "activity at 10 µM", "setting": "NCI-H322M", "result": 97.8, "unit": "%"}, {"measurement": "activity at 10 µM", "setting": "IGROV1", "result": 98.4, "unit": "%"}, {"measurement": "activity at 10 µM", "setting": "786-0", "result": 104, "unit": "%"}, {"measurement": "activity at 10 µM", "setting": "BT-549", "result": 114, "unit": "%"}, {"measurement": "activity at 10 µM", "setting": "NCI-H23", "result": 103, "unit": "%"}, {"measurement": "activity at 10 µM", "setting": "NCI-H460", "result": 104, "unit": "%"}, {"measurement": "activity at 10 µM", "setting": "MDA-MB-231/ATCC", "result": 97.7, "unit": "%"}, {"measurement": "activity at 10 µM", "setting": "OVCAR-8", "result": 99.8, "unit": "%"}, {"measurement": "activity at 10 µM", "setting": "UACC-62", "result": 94.7, "unit": "%"}, {"measurement": "activity at 10 µM", "setting": "[1]", "result": 100, "unit": "%"}, {"measurement": "activity at 10 µM", "setting": "HCT-15", "result": 99, "unit": "%"}, {"measurement": "activity at 10 µM", "setting": "MALME-3M", "result": 98, "unit": "%"}, {"measurement": "activity at 10 µM", "setting": "SN12C", "result": 96.1, "unit": "%"}, {"measurement": "activity at 10 µM", "setting": "SK-MEL-5", "result": 102, "unit": "%"}, {"measurement": "activity at 10 µM", "setting": "HOP-92", "result": 84.2, "unit": "%"}, {"measurement": "activity at 10 µM", "setting": "A498", "result": 99.6, "unit": "%"}, {"measurement": "activity at 10 µM", "setting": "NCI/ADR-RES", "result": 110, "unit": "%"}, {"measurement": "activity at 10 µM", "setting": "MOLT-4", "result": 103, "unit": "%"}, {"measurement": "activity at 10 µM", "setting": "KM12", "result": 102, "unit": "%"}, {"measurement": "activity at 10 µM", "setting": "SF-539", "result": 104, "unit": "%"}]}
